Test results: the NIST ThermoML archive (doi:10.1016/j.jct.2018.10.015)

Assay: xn = mol fraction of the nth substance listed
Conditions: 101.3 kPa, Liquid; for viscosity: Concentric cylinders viscometry; for mass density: Vibrating tube method

CCCCn1cc[n+](C)c1C.O=S(=O)([N-]S(=O)(=O)C(F)(F)F)C(F)(F)F + COC(=O)OC
Conditions | mass density [kg/m3] | viscosity [mPa·s]
293.15 K, x1 = 0.0976 | 1176 | 1.828
293.15 K, x1 = 0.1935 | 1242.1 | 3.518
293.15 K, x1 = 0.299 | 1291.6 | 6.864
293.15 K, x1 = 0.4011 | 1325.8 | 12.11
293.15 K, x1 = 0.4954 | 1350.1 | 19.5
293.15 K, x1 = 0.5974 | 1371 | 31.06
293.15 K, x1 = 0.6988 | 1387.8 | 47.37
293.15 K, x1 = 0.7987 | 1401.5 | 68.9
293.15 K, x1 = 0.9 | 1413.2 | 97.5
293.15 K, x1 = 1 | 1423.1 | 133.6
298.15 K, x1 = 0.0976 | 1170.1 | 1.686
298.15 K, x1 = 0.1935 | 1236.6 | 3.172
298.15 K, x1 = 0.299 | 1286.4 | 6.035
298.15 K, x1 = 0.4011 | 1320.8 | 10.38
298.15 K, x1 = 0.4954 | 1345.2 | 16.34
298.15 K, x1 = 0.5974 | 1366.2 | 25.45
298.15 K, x1 = 0.6988 | 1383 | 38.01
298.15 K, x1 = 0.7987 | 1396.8 | 54.23
298.15 K, x1 = 0.9 | 1408.5 | 75.54
298.15 K, x1 = 1 | 1418.5 | 101.82
303.15 K, x1 = 0.0976 | 1164.2 | 1.561
303.15 K, x1 = 0.1935 | 1231.1 | 2.876
303.15 K, x1 = 0.299 | 1281.2 | 5.352
303.15 K, x1 = 0.4011 | 1315.7 | 8.997
303.15 K, x1 = 0.4954 | 1340.2 | 13.88
303.15 K, x1 = 0.5974 | 1361.4 | 21.16
303.15 K, x1 = 0.6988 | 1378.3 | 31.01
303.15 K, x1 = 0.7987 | 1392.1 | 43.5
303.15 K, x1 = 0.9 | 1403.9 | 59.63
303.15 K, x1 = 1 | 1413.9 | 79.23
308.15 K, x1 = 0.0976 | 1158.2 | 1.445
308.15 K, x1 = 0.1935 | 1225.6 | 2.623
308.15 K, x1 = 0.299 | 1275.9 | 4.784
308.15 K, x1 = 0.4011 | 1310.7 | 7.873
308.15 K, x1 = 0.4954 | 1335.3 | 11.92
308.15 K, x1 = 0.5974 | 1356.5 | 17.83
308.15 K, x1 = 0.6988 | 1373.5 | 25.68
308.15 K, x1 = 0.7987 | 1387.4 | 35.46
308.15 K, x1 = 0.9 | 1399.2 | 47.91
308.15 K, x1 = 1 | 1409.3 | 62.74
313.15 K, x1 = 0.0976 | 1152.2 | 1.343
313.15 K, x1 = 0.1935 | 1220.1 | 2.405
313.15 K, x1 = 0.299 | 1270.7 | 4.306
313.15 K, x1 = 0.4011 | 1305.6 | 6.95
313.15 K, x1 = 0.4954 | 1330.4 | 10.34
313.15 K, x1 = 0.5974 | 1351.7 | 15.2
313.15 K, x1 = 0.6988 | 1368.8 | 21.55
313.15 K, x1 = 0.7987 | 1382.7 | 29.34
313.15 K, x1 = 0.9 | 1394.6 | 39.06
313.15 K, x1 = 1 | 1404.8 | 50.56
318.15 K, x1 = 0.0976 | 1146.2 | 1.25
318.15 K, x1 = 0.1935 | 1214.5 | 2.214
318.15 K, x1 = 0.299 | 1265.5 | 3.9
318.15 K, x1 = 0.4011 | 1300.6 | 6.184
318.15 K, x1 = 0.4954 | 1325.5 | 9.06
318.15 K, x1 = 0.5974 | 1346.9 | 13.1
318.15 K, x1 = 0.6988 | 1364 | 18.3
318.15 K, x1 = 0.7987 | 1378.1 | 24.58
318.15 K, x1 = 0.9 | 1390 | 32.32
318.15 K, x1 = 1 | 1400.2 | 41.38
323.15 K, x1 = 0.0976 | 1140.2 | 1.165
323.15 K, x1 = 0.1935 | 1209 | 2.046
323.15 K, x1 = 0.299 | 1260.3 | 3.553
323.15 K, x1 = 0.4011 | 1295.6 | 5.543
323.15 K, x1 = 0.4954 | 1320.6 | 8
323.15 K, x1 = 0.5974 | 1342.1 | 11.4
323.15 K, x1 = 0.6988 | 1359.3 | 15.71
323.15 K, x1 = 0.7987 | 1373.4 | 20.85
323.15 K, x1 = 0.9 | 1385.4 | 27.09
323.15 K, x1 = 1 | 1395.6 | 34.32
328.15 K, x1 = 0.0976 | 1133.9 | 1.091
328.15 K, x1 = 0.1935 | 1203.6 | 1.904
328.15 K, x1 = 0.299 | 1255.1 | 3.258
328.15 K, x1 = 0.4011 | 1290.5 | 5.017
328.15 K, x1 = 0.4954 | 1315.6 | 7.129
328.15 K, x1 = 0.5974 | 1337.2 | 10.03
328.15 K, x1 = 0.6988 | 1354.6 | 13.64
328.15 K, x1 = 0.7987 | 1368.7 | 17.91
328.15 K, x1 = 0.9 | 1380.8 | 23.04
328.15 K, x1 = 1 | 1391 | 28.91
